By IC50 is commonly meant the point on the concentration scale where inhibition reaches its midpoint. Broadly, the EC50 is the concentration at which the effect is half-maximal.

SMILES strings stand for the structures.

For experiment [1], the system named is CCL17 secretion in peripheral human whole blood. The experiment in a line: Human Whole Blood (HWB) CCL17 TR-FRET Assay (IL-13 stimulated CCL17 secretion). The experiment is classed as cell-based. Particulars: Homo sapiens, 48 h, inhibition of CCL17 secretion in human whole blood, 10 ng/mL IL13, 48 hours. The procedure, abridged: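 Measured here: CCL17 in serum by TR-FRET (665/615 nm) after overnight (16 h) room-temperature detection. The blood, heparinized and compound-treated for 2 h, received IL-13 at 10 ng/mL final and was cultured 48 h at 37 °C.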

For another experiment, the target named is T1, STAT6 (Homo sapiens, UniProt P42226).
T1 construct: stably transfected HaCaT keratinocyte cell line, which expresses NanoLuc luciferase reporter gene under the transcriptional control of the STAT6 responsive promoter; endogenous in cells; host or cells: HaCaT keratinocyte reporter cell line (stably transfected with a NanoLuc reporter)
T1 sequence (P42226 1-847): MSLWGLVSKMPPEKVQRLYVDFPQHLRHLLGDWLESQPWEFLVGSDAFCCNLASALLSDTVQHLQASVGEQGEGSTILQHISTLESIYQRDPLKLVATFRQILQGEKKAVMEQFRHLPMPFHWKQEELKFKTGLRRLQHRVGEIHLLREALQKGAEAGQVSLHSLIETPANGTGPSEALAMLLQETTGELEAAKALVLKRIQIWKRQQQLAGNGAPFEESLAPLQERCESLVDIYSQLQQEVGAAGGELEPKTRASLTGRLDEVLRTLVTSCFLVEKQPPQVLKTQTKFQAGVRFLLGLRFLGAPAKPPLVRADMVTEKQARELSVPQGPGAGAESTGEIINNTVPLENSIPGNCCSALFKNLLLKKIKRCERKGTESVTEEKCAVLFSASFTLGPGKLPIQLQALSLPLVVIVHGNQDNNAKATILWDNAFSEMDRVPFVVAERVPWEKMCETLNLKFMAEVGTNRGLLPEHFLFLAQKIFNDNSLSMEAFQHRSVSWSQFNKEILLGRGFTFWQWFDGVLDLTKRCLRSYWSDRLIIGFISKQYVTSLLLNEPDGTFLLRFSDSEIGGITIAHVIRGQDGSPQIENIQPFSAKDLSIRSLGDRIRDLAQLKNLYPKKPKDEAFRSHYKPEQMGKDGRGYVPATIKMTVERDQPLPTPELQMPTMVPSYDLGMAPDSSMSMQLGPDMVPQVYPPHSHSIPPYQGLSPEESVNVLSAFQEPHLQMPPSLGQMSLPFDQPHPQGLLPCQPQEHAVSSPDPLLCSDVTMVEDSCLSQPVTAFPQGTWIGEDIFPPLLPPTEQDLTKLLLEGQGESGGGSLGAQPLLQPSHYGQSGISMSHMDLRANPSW
The experiment in a line: STAT6 Reporter Luciferase Assay (IL-13 stimulated HaCaT keratinocyte NanoLuc reporter cells). The experiment is classed as cell-based. Particulars: STAT6 NanoLuc luciferase reporter, IL-13 stimulated HaCaT keratinocyte cells; read-out: Reporter EC50. A digest of the protocol: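 Stably transfected HaCaT cells carrying NanoLuc under the STAT6-responsive IL-13Ra2 promoter were pre-treated with compound (11-point, 4-fold series, duplicate) for 2 h at 37 °C, then stimulated with 0.12 nM IL-13 for 4 h. Nano-Glo luminescence was read after 15 min.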
Background: In a reporter assay the amount or activity of a reporter protein is the signal.

Molecule `Cc1ccn(-c2ccc(N3CCc4c(c(C(=O)NCc5ccc(NC(=O)N(C)C)cc5)nn4C(C)C)C3)nc2)n1` [Example 47, N-(4-(3,3-dimethylureido)benzyl)-1-isopropyl-5-(5-(3-methyl-1H-pyrazol-1-yl)pyridin-2-yl)-4,5,6,7-tetrahydro-1H-pyrazolo[4,3-c]pyridine-3-carboxamide] registered an IC50 in experiment [1] greater than 30 µM. At STAT6, the EC50 came out at 1.18 µM.
Taken in the same sequence, the figures for `CNC(=O)c1ccc(CNC(=O)c2csc3c2CN(c2ccc(C(=O)N(C)C)cn2)CC3)cc1` [Example 48, 5-(5-(dimethylcarbamoyl)pyridin-2-yl)-N-(4-(methylcarbamoyl)benzyl)-4,5,6,7-tetrahydrothieno[3,2-c]pyridine-3-carboxamide] were 3.96 µM and 0.952 µM.
Taken in the same sequence, the figures for `C[C@@H]1Cc2c(c(C(=O)NCc3ccc(NC(=O)N(C)C)cc3)nn2C)CN1c1ccc(C(=O)N(C)C)cn1` [Example 50, (R)-5-(5-(dimethylcarbamoyl)pyridin-2-yl)-N-(4-(3,3-dimethylureido)benzyl)-1,6-dimethyl-4,5,6,7-tetrahydro-1H-pyrazolo[4,3-c]pyridine-3-carboxamide] were 0.151 µM and 0.035 µM.
In experiment [1], `C[C@H]1Cc2c(c(C(=O)NCc3ccc(NC(=O)N(C)C)cc3)nn2C)CN1c1ccc(C(=O)N(C)C)cn1` [Example 51, (S)-5-(5-(dimethylcarbamoyl)pyridin-2-yl)-N-(4-(3,3-dimethylureido)benzyl)-1,6-dimethyl-4,5,6,7-tetrahydro-1H-pyrazolo[4,3-c]pyridine-3-carboxamide] had an IC50 of 0.03 µM. Moreover, the EC50 at STAT6 is 0.004 µM.
`CN(C)C(=O)Nc1ccc(CNC(=O)c2nc(C(C)(F)F)n3c2CN(c2ccc(C(=O)N(C)C)cn2)CC3)cc1` [Example 52, 3-(1,1-difluoroethyl)-7-(5-(dimethylcarbamoyl)pyridin-2-yl)-N-(4-(3,3-dimethylureido)benzyl)-5,6,7,8-tetrahydroimidazo[1,5-a]pyrazine-1-carboxamide] displayed a half-maximal inhibitory concentration (IC50) in experiment [1] of 0.064 µM. On STAT6, the EC50 stood at 0.009 µM.
As to `CC1CCC(=O)N1c1ccc(N2CCc3c(c(C(=O)NCc4ccc(NC(=O)N(C)C)cc4)nn3C(C)C)C2)nc1` (stereo not drawn) [Example 56, N-(4-(3,3-dimethylureido)benzyl)-1-isopropyl-5-(5-(2-methyl-5-oxopyrrolidin-1-yl)pyridin-2-yl)-4,5,6,7-tetrahydro-1H-pyrazolo[4,3-c]pyridine-3-carboxamide], the IC50 in experiment [1] worked out at 0.369 µM. Further, the EC50 on STAT6 stood at 0.013 µM.
For `CC(C)n1nc(C(=O)NCc2ccc(NC(=O)N(C)C)cc2)c2c1CCN(c1ccc(N3CCN(C)C3=O)cn1)C2` [Example 60, N-(4-(3,3-dimethylureido)benzyl)-1-isopropyl-5-(5-(3-methyl-2-oxoimidazolidin-1-yl)pyridin-2-yl)-4,5,6,7-tetrahydro-1H-pyrazolo[4,3-c]pyridine-3-carboxamide], in that order: 0.91 µM and 0.032 µM.
`CC1CCN(c2ccc(N3CCc4c(c(C(=O)NCc5ccc(NC(=O)N(C)C)cc5)nn4C(C)C)C3)nc2)C1=O` (stereo not drawn) [Example 61, N-(4-(3,3-dimethylureido)benzyl)-1-isopropyl-5-(5-(3-methyl-2-oxopyrrolidin-1-yl)pyridin-2-yl)-4,5,6,7-tetrahydro-1H-pyrazolo[4,3-c]pyridine-3-carboxamide] came in with a concentration for half-maximal inhibition (IC50) in experiment [1] of 2.59 µM. Besides, the 50% effective concentration (EC50) on STAT6 is 0.075 µM.
Taken in the same sequence, the figures for `CC(C)n1nc(C(=O)NCc2ccc(NC(=O)N(C)C)cc2)c2c1CCN(c1ccc(-n3ccnn3)cn1)C2` [Example 64, 5-(5-(1H-1,2,3-triazol-1-yl)pyridin-2-yl)-N-(4-(3,3-dimethylureido)benzyl)-1-isopropyl-4,5,6,7-tetrahydro-1H-pyrazolo[4,3-c]pyridine-3-carboxamide] were 0.073 µM and 0.004 µM.
Consider `CC(C)n1nc(C(=O)NCc2ccc(NC(=O)N(C)C)cc2)c2c1CCN(c1ccc(N3CCC4(CC4)C3=O)cn1)C2` [Example 65, N-(4-(3,3-dimethylureido)benzyl)-1-isopropyl-5-(5-(4-oxo-5-azaspiro[2.4]heptan-5-yl)pyridin-2-yl)-4,5,6,7-tetrahydro-1H-pyrazolo[4,3-c]pyridine-3-carboxamide], for which the IC50 in experiment [1] came to 28.1 µM. In addition, the EC50 at STAT6 is 0.208 µM.
Taken in the same sequence, the figures for `CC(C)n1nc(C(=O)NCc2ccc(NC(=O)N(C)C)cc2)c2c1CCN(c1ccc(N3C[C@@H](C)CC3=O)cn1)C2` [Example 66, (S)-N-(4-(3,3-dimethylureido)benzyl)-1-isopropyl-5-(5-(4-methyl-2-oxopyrrolidin-1-yl)pyridin-2-yl)-4,5,6,7-tetrahydro-1H-pyrazolo[4,3-c]pyridine-3-carboxamide] were 0.089 µM and 0.013 µM.
Taken in the same sequence, the figures for `CC(C)n1nc(C(=O)NCc2ccc(NC(=O)N(C)C)cc2)c2c1CCN(c1ccc(N3C[C@H](C)CC3=O)cn1)C2` [Example 67, (R)-N-(4-(3,3-dimethylureido)benzyl)-1-isopropyl-5-(5-(4-methyl-2-oxopyrrolidin-1-yl)pyridin-2-yl)-4,5,6,7-tetrahydro-1H-pyrazolo[4,3-c]pyridine-3-carboxamide] were 5.02 µM and 0.064 µM.
For `CC(C)n1nc(C(=O)NCc2ccc(NC(=O)N(C)C)cc2)c2c1CCN(c1ccc(N3C(=O)CC[C@H]3CO)cn1)C2` [Example 69, (S)-N-(4-(3,3-dimethylureido)benzyl)-5-(5-(2-(hydroxymethyl)-5-oxopyrrolidin-1-yl)pyridin-2-yl)-1-isopropyl-4,5,6,7-tetrahydro-1H-pyrazolo[4,3-c]pyridine-3-carboxamide], in that order: 8.11 µM and 1.07 µM.
In experiment [1], `CN(C)C(=O)Nc1ccc(CNC(=O)c2nn(C)c3c2CN(c2ccc(C(=O)N(C)C)cn2)CC3(F)F)cc1` [Example 70, 5-(5-(dimethylcarbamoyl)pyridin-2-yl)-N-(4-(3,3-dimethylureido)benzyl)-7,7-difluoro-1-methyl-4,5,6,7-tetrahydro-1H-pyrazolo[4,3-c]pyridine-3-carboxamide] had a half-maximal inhibitory concentration (IC50) of 0.081 µM. In addition, the concentration for a half-maximal effect (EC50) at STAT6 worked out at 0.008 µM.
Taken in the same sequence, the figures for `CC(C)n1nc(C(=O)NCc2ccc(NC(=O)N(C)C)cc2)c2c1CCN(c1ccc(N3C(=O)CCC34CC4)cn1)C2` [Example 73, N-(4-(3,3-dimethylureido)benzyl)-1-isopropyl-5-(5-(5-oxo-4-azaspiro[2.4]heptan-4-yl)pyridin-2-yl)-4,5,6,7-tetrahydro-1H-pyrazolo[4,3-c]pyridine-3-carboxamide] were 9.35 µM and 0.121 µM.
Taken in the same sequence, the figures for `CCCn1nc(C(=O)NCc2ccc(NC(=O)N(C)C)cc2)c2c1CCN(c1ccc(C(=O)N(C)C)cn1)C2` [Example 74, 5-(5-(dimethylcarbamoyl)pyridin-2-yl)-N-(4-(3,3-dimethylureido)benzyl)-1-propyl-4,5,6,7-tetrahydro-1H-pyrazolo[4,3-c]pyridine-3-carboxamide] were 0.12 µM and 0.011 µM.
Taken in the same sequence, the figures for `CC(C)n1nc(C(=O)NCc2ccc(NC(=O)N(C)C)cc2)c2c1CCN(c1ccc(N3C[C@H](CO)CC3=O)cn1)C2` [Example 75, (R)-N-(4-(3,3-dimethylureido)benzyl)-5-(5-(4-(hydroxymethyl)-2-oxopyrrolidin-1-yl)pyridin-2-yl)-1-isopropyl-4,5,6,7-tetrahydro-1H-pyrazolo[4,3-c]pyridine-3-carboxamide] were 4.56 µM and 2.83 µM.
On to `CN(C)C(=O)Nc1ccc(CNC(=O)c2nn(C3CCOCC3)c3c2CN(c2ccc(C(=O)N(C)C)cn2)CC3)cc1` [Example 76, 5-(5-(dimethylcarbamoyl)pyridin-2-yl)-N-(4-(3,3-dimethylureido)benzyl)-1-(tetrahydro-2H-pyran-4-yl)-4,5,6,7-tetrahydro-1H-pyrazolo[4,3-c]pyridine-3-carboxamide], for which the IC50 in experiment [1] was determined as 0.156 µM. Further, the concentration giving a half-maximal response (EC50) on STAT6 turned out to be 0.057 µM.

These data come from patent publication US20250320213A1, “Nitrogen-Containing Heterocyclic Compounds” (Pfizer Inc., priority 2024, published 2025).
